Laboratory results from patent US12077503B2, “Substituted cyclic amides and their use as herbicides” (FMC CORPORATION, priority 2015, dated 2024).
Like-named read-outs stand apart in the source and are kept apart here.

Key:
Assay in all cases: Test A preemergence
Assay type in all cases: in vivo
[1] = system: barnyardgrass (Echinochloa crus-galli); details: Echinochloa crus-galli, pre-emergence, 240 h; for pest or weed control at 125 g/ha: 125 g ai/ha; for pest or weed control at 500 g/ha: 500 g ai/ha
In short: (§1)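 Ratings of 0 (no effect) to 100 (complete control) come from visual comparison with untreated controls roughly 10 d after treatment. Test chemicals, formulated in a non-phytotoxic solvent mixture with surfactant, were applied either as a preemergence directed soil spray on seeded soil or postemergence to one- to two-leaf plants 2 to 10 cm tall.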

[2] = system: giant foxtail (Setaria faberii); details: Setaria faberi, pre-emergence, 240 h; for pest or weed control at 125 g/ha: 125 g ai/ha; for pest or weed control at 500 g/ha: 500 g ai/ha
In short: as §1

[3] = system: ryegrass, Italian (Italian ryegrass, Lolium multiflorum); details: Lolium multiflorum, pre-emergence, 240 h; for pest or weed control at 125 g/ha: 125 g ai/ha; for pest or weed control at 500 g/ha: 500 g ai/ha
In short: as §1

[4] = system: Kochia (Kochia scoparia); details: Bassia scoparia, pre-emergence, 240 h; for pest or weed control at 125 g/ha: 125 g ai/ha; for pest or weed control at 500 g/ha: 500 g ai/ha
In short: as §1

[5] = system: ragweed (common ragweed, Ambrosia elatior); details: Ambrosia artemisiifolia, pre-emergence, 240 h; for pest or weed control at 125 g/ha: 125 g ai/ha; for pest or weed control at 500 g/ha: 500 g ai/ha
In short: as §1

[6] = preemergence, 0 to 100 scale where 0 is no effect and 100 is complete control, read-out: Barnyardgrass plant response rating
[7] = Preemergence, visual injury vs untreated controls after approximately 10 d, read-out: Barnyardgrass plant response rating (0 to 100 scale where 0 is no effect and 100 is complete control)
[8] = preemergence, 0 to 100 scale where 0 is no effect and 100 is complete control, read-out: Foxtail, Giant plant response rating
[9] = Preemergence, visual injury vs untreated controls after approximately 10 d, read-out: Foxtail, Giant plant response rating (0 to 100 scale where 0 is no effect and 100 is complete control)
[10] = preemergence, 0 to 100 scale where 0 is no effect and 100 is complete control, read-out: Ryegrass, Italian plant response rating
[11] = Preemergence, visual injury vs untreated controls after approximately 10 d, read-out: Ryegrass, Italian plant response rating (0 to 100 scale where 0 is no effect and 100 is complete control)
[12] = preemergence, 0 to 100 scale where 0 is no effect and 100 is complete control, read-out: Kochia plant response rating
[13] = Preemergence, visual injury vs untreated controls after approximately 10 d, read-out: Kochia plant response rating (0 to 100 scale where 0 is no effect and 100 is complete control)
[14] = preemergence, 0 to 100 scale where 0 is no effect and 100 is complete control, read-out: Ragweed plant response rating
[15] = Preemergence, visual injury vs untreated controls after approximately 10 d, read-out: Ragweed plant response rating (0 to 100 scale where 0 is no effect and 100 is complete control)
[16] = Preemergence, visual injury rating after approximately 10 d, read-out: Barnyardgrass plant response rating (0 to 100 scale, 0 is no effect, 100 is complete control)
[17] = preemergence, visual injury rating about 10 d after treatment, 0 to 100 scale (0 no effect, 100 complete control), read-out: Barnyardgrass plant response rating
[18] = Preemergence, visual injury rating after approximately 10 d, read-out: Foxtail, Giant plant response rating (0 to 100 scale, 0 is no effect, 100 is complete control)
[19] = preemergence, visual injury rating about 10 d after treatment, 0 to 100 scale (0 no effect, 100 complete control), read-out: Foxtail, Giant plant response rating
[20] = Preemergence, visual injury rating after approximately 10 d, read-out: Ryegrass, Italian plant response rating (0 to 100 scale, 0 is no effect, 100 is complete control)
[21] = preemergence, visual injury rating about 10 d after treatment, 0 to 100 scale (0 no effect, 100 complete control), read-out: Ryegrass, Italian plant response rating
[22] = Preemergence, visual injury rating after approximately 10 d, read-out: Kochia plant response rating (0 to 100 scale, 0 is no effect, 100 is complete control)
[23] = preemergence, visual injury rating about 10 d after treatment, 0 to 100 scale (0 no effect, 100 complete control), read-out: Kochia plant response rating
[24] = Preemergence, visual injury rating after approximately 10 d, read-out: Ragweed plant response rating (0 to 100 scale, 0 is no effect, 100 is complete control)
[25] = preemergence, visual injury rating about 10 d after treatment, 0 to 100 scale (0 no effect, 100 complete control), read-out: Ragweed plant response rating
[26] = preemergence, 0 to 100 scale where 0 is no effect and 100 is complete control, approx. 10 d, read-out: Barnyardgrass plant response rating
[27] = preemergence, 0 to 100 scale where 0 is no effect and 100 is complete control, approx. 10 d, read-out: Foxtail, Giant plant response rating
[28] = preemergence, 0 to 100 scale where 0 is no effect and 100 is complete control, approx. 10 d, read-out: Ryegrass, Italian plant response rating
[29] = preemergence, 0 to 100 scale where 0 is no effect and 100 is complete control, approx. 10 d, read-out: Kochia plant response rating
[30] = preemergence, 0 to 100 scale where 0 is no effect and 100 is complete control, approx. 10 d, read-out: Ragweed plant response rating

## COc1c(F)ccc([C@H]2CN(C)C(=O)[C@@H]2C(=O)Nc2ccc(F)c(F)c2F)c1Cl [Compound 895]
[1]; [6]
  pest or weed control at 125 g/ha: 90%
[1]; [7]
  pest or weed control at 500 g/ha: 100%
[2]; [8]
  pest or weed control at 125 g/ha: 90%
[2]; [9]
  pest or weed control at 500 g/ha: 90%
[3]; [10]
  pest or weed control at 125 g/ha: 90%
[3]; [11]
  pest or weed control at 500 g/ha: 70%
[4]; [12]
  pest or weed control at 125 g/ha: 90%
[4]; [13]
  pest or weed control at 500 g/ha: 90%
[5]; [14]
  pest or weed control at 125 g/ha: 0%
[5]; [15]
  pest or weed control at 500 g/ha: 0%

## CN1C[C@H](c2cccc(OC(F)(F)C(F)F)c2)[C@@H](C(=O)Nc2ccccc2S(C)(=O)=O)C1=O [Compound 864]
[1]; [6]
  pest or weed control at 125 g/ha: 90%
[1]; [7]
  pest or weed control at 500 g/ha: 90%
[2]; [8]
  pest or weed control at 125 g/ha: 90%
[2]; [9]
  pest or weed control at 500 g/ha: 90%
[3]; [10]
  pest or weed control at 125 g/ha: 0%
[3]; [11]
  pest or weed control at 500 g/ha: 50%
[4]; [12]
  pest or weed control at 125 g/ha: 60%
[4]; [13]
  pest or weed control at 500 g/ha: 80%
[5]; [14]
  pest or weed control at 125 g/ha: 20%
[5]; [15]
  pest or weed control at 500 g/ha: 50%

## O=C(Nc1cccc(F)c1F)[C@H]1C(=S)NC[C@@H]1c1ccc(C(F)(F)F)cc1 (racemic) [Compound 1048]
[1]; [16]
  pest or weed control at 125 g/ha: 90%
[1]; [17]
  pest or weed control at 500 g/ha: 90%
[2]; [18]
  pest or weed control at 125 g/ha: 90%
[2]; [19]
  pest or weed control at 500 g/ha: 90%
[3]; [20]
  pest or weed control at 125 g/ha: 20%
[3]; [21]
  pest or weed control at 500 g/ha: 40%
[4]; [22]
  pest or weed control at 125 g/ha: 90%
[4]; [23]
  pest or weed control at 500 g/ha: 90%
[5]; [24]
  pest or weed control at 125 g/ha: 50%
[5]; [25]
  pest or weed control at 500 g/ha: 80%

## COc1c(F)ccc([C@H]2CN(C)C(=O)[C@@H]2C(=O)Nc2ccccc2F)c1Cl [Compound 892]
[1]; [6]
  pest or weed control at 125 g/ha: 100%
[1]; [7]
  pest or weed control at 500 g/ha: 100%
[2]; [8]
  pest or weed control at 125 g/ha: 100%
[2]; [9]
  pest or weed control at 500 g/ha: 100%
[3]; [10]
  pest or weed control at 125 g/ha: 30%
[3]; [11]
  pest or weed control at 500 g/ha: 90%
[4]; [12]
  pest or weed control at 125 g/ha: 70%
[4]; [13]
  pest or weed control at 500 g/ha: 90%
[5]; [14]
  pest or weed control at 125 g/ha: 20%
[5]; [15]
  pest or weed control at 500 g/ha: 50%

## CN1C[C@H](c2cc(C(F)F)cs2)[C@@H](C(=O)Nc2ccccc2F)C1=O [Compound 1120]
[1]; [26]
  pest or weed control at 125 g/ha: 90%
[1]; [17]
  pest or weed control at 500 g/ha: 100%
[2]; [27]
  pest or weed control at 125 g/ha: 90%
[2]; [8]
  pest or weed control at 500 g/ha: 100%
[3]; [28]
  pest or weed control at 125 g/ha: 20%
[3]; [10]
  pest or weed control at 500 g/ha: 40%
[4]; [29]
  pest or weed control at 125 g/ha: 40%
[4]; [12]
  pest or weed control at 500 g/ha: 70%
[5]; [30]
  pest or weed control at 125 g/ha: 40%
[5]; [14]
  pest or weed control at 500 g/ha: 50%

## CN1C[C@H](c2cscn2)[C@@H](C(=O)Nc2ccccc2F)C1=O [Compound 1112]
[1]; [26]
  pest or weed control at 125 g/ha: 0%
[1]; [17]
  pest or weed control at 500 g/ha: 0%
[2]; [27]
  pest or weed control at 125 g/ha: 0%
[2]; [8]
  pest or weed control at 500 g/ha: 0%
[3]; [28]
  pest or weed control at 125 g/ha: 0%
[3]; [10]
  pest or weed control at 500 g/ha: 0%
[4]; [29]
  pest or weed control at 125 g/ha: 0%
[4]; [12]
  pest or weed control at 500 g/ha: 0%
[5]; [30]
  pest or weed control at 125 g/ha: 0%
[5]; [14]
  pest or weed control at 500 g/ha: 0%

## CN1C[C@H](c2cc(F)cc(F)c2)[C@@H](C(=O)Nc2ccncc2F)C1=O [Compound 1095]
[1]; [26]
  pest or weed control at 125 g/ha: 0%
[1]; [17]
  pest or weed control at 500 g/ha: 60%
[2]; [27]
  pest or weed control at 125 g/ha: 0%
[2]; [19]
  pest or weed control at 500 g/ha: 90%
[3]; [28]
  pest or weed control at 125 g/ha: 0%
[3]; [21]
  pest or weed control at 500 g/ha: 0%
[4]; [29]
  pest or weed control at 125 g/ha: 0%
[4]; [23]
  pest or weed control at 500 g/ha: 0%
[5]; [30]
  pest or weed control at 125 g/ha: 0%
[5]; [25]
  pest or weed control at 500 g/ha: 0%

## CN1C[C@H](c2cc(C(F)(F)F)cs2)[C@@H](C(=O)Nc2ccccc2F)C1=O [Compound 962]
[1]; [16]
  pest or weed control at 125 g/ha: 90%
[1]; [17]
  pest or weed control at 500 g/ha: 90%
[2]; [18]
  pest or weed control at 125 g/ha: 90%
[2]; [19]
  pest or weed control at 500 g/ha: 90%
[3]; [20]
  pest or weed control at 125 g/ha: 0%
[3]; [21]
  pest or weed control at 500 g/ha: 30%
[4]; [22]
  pest or weed control at 125 g/ha: 50%
[4]; [23]
  pest or weed control at 500 g/ha: 70%
[5]; [24]
  pest or weed control at 125 g/ha: 20%
[5]; [25]
  pest or weed control at 500 g/ha: 30%

## CN1C[C@H](c2ccc(F)c(F)c2)[C@@H](C(=S)Nc2ccccc2F)C1=O (racemic) [Compound 1153]
[1]; [26]
  pest or weed control at 125 g/ha: 80%
[1]; [6]
  pest or weed control at 500 g/ha: 90%
[2]; [27]
  pest or weed control at 125 g/ha: 90%
[2]; [8]
  pest or weed control at 500 g/ha: 90%
[3]; [28]
  pest or weed control at 125 g/ha: 30%
[3]; [10]
  pest or weed control at 500 g/ha: 50%
[4]; [29]
  pest or weed control at 125 g/ha: 60%
[4]; [12]
  pest or weed control at 500 g/ha: 70%
[5]; [30]
  pest or weed control at 125 g/ha: 0%
[5]; [14]
  pest or weed control at 500 g/ha: 0%

## Cc1c(F)ccc([C@H]2CNC(=O)[C@@H]2C(=O)Nc2ccccc2C(F)(F)F)c1F [Compound 831]
[1]; [6]
  pest or weed control at 125 g/ha: 50%
[1]; [7]
  pest or weed control at 500 g/ha: 70%
[2]; [8]
  pest or weed control at 125 g/ha: 90%
[2]; [9]
  pest or weed control at 500 g/ha: 90%
[3]; [10]
  pest or weed control at 125 g/ha: 30%
[3]; [11]
  pest or weed control at 500 g/ha: 50%
[4]; [12]
  pest or weed control at 125 g/ha: 0%
[4]; [13]
  pest or weed control at 500 g/ha: 0%
[5]; [14]
  pest or weed control at 125 g/ha: 0%
[5]; [15]
  pest or weed control at 500 g/ha: 0%

## Cc1cc([C@H]2CNC(=O)[C@@H]2C(=O)Nc2ccccc2F)ccc1C(F)(F)F [Compound 1042]
[1]; [16]
  pest or weed control at 125 g/ha: 90%
[1]; [17]
  pest or weed control at 500 g/ha: 90%
[2]; [18]
  pest or weed control at 125 g/ha: 90%
[2]; [19]
  pest or weed control at 500 g/ha: 90%
[3]; [20]
  pest or weed control at 125 g/ha: 30%
[3]; [21]
  pest or weed control at 500 g/ha: 50%
[4]; [22]
  pest or weed control at 125 g/ha: 20%
[4]; [23]
  pest or weed control at 500 g/ha: 70%
[5]; [24]
  pest or weed control at 125 g/ha: 20%
[5]; [25]
  pest or weed control at 500 g/ha: 40%
